We go through 86 molecules from PubChem BioAssay AID2305 (GlaxoSmithKline (GSK), 2010).

pIC50: −log10 of the molar value. Where “and” joins values, the source holds several entries; their conditions need not be identical. Equal entries are not always repeated.

The subject of this assay is P. falciparum 3D7 growth, pLDH absorbance. Description: blood-stage malaria parasite growth potency – strain 3D7, dose response (AID 2305).
Consider `CCc1cn2c3c(cc(C(=O)N[C@@H](Cc4ccccc4)[C@H](O)CNC4CCCCC4)cc13)N(CC)S(=O)(=O)CC2`, for which the negative-log IC50 (pIC50) (as a rule, −log10 of the IC50, conventionally taken in molar units) was 7.52.
With `N#Cc1ccc2c(c1)CCN(CCCn1c(-c3ccc4ccccc4c3)nc3ccncc31)CC2`, the pIC50 is 6.70.
Molecule `C=CCNc1cc(-c2ccccn2)nc(-c2ccccn2)n1` showed a pIC50 of 6.33.
`CN1CCC[C@H]1COc1ccc(CN2CC[C@H](NC(=O)c3ccc(Cl)c(Cl)c3)C2)c2ccccc12` showed a pIC50 of 6.02.
The molecule `CN(C)CCN(C)Cc1ccc(-c2ccc(NS(=O)(=O)c3cccc4cccnc34)cc2)cc1` had a pIC50 of 6.07.
In the case of `CC(CN(C)C)C(=O)Nc1ccc(-c2csc(-c3nc4ccccc4[nH]3)c2)cc1` (stereo unspecified), the pIC50 was 5.88.
`COc1ccc(Nc2cc(C)nc(NCc3ccc4c(c3)OCO4)n2)cc1` gave a pIC50 of 6.11.
As to `CN1C(=O)C(=O)N(CCCCCON=C(N)N)C1=S`, the negative-log IC50 (pIC50) is 6.70.
In the case of `CCC(NC(=O)c1ccccc1NC(=O)c1ccc(C)cc1)C(=O)OC` (stereo unspecified), the pIC50 is 6.12.
Molecule `CC(C)(C)c1ccc(NC(=O)c2ccc(CN3CCCN(Cc4cccc(C#N)c4)CC3)cc2)cc1` showed a negative-log IC50 (pIC50) of 6.19.
As for `COc1cc2nc(N(C)CC3COc4ccccc4O3)nc(N)c2cc1OC` (stereo unspecified), the pIC50 was 5.81.
In the case of `O=C(Nc1cccc(-c2cccc(-c3nc4ccc(F)cc4[nH]3)c2)c1)c1ccncc1`, the negative logarithm of the IC50 (pIC50) was 6.29.
In the case of `Cc1cccc2[nH]c(-c3ccc(-c4ccc(CN5CCCCC5)cc4)s3)nc12` it was 6.28.
With `C#CC[C@@H](NC(N)=O)C(=O)O`, the pIC50 is 6.72.
Regarding `c1ccc(CNCc2ccc(-c3ccc(-c4nc5ccccc5[nH]4)cc3)cc2)cc1`, the pIC50 is 6.47.
As to `CN1CCCN(Cc2cccc(-c3ccc(NC(=O)c4ccc(Cl)cc4)cc3)c2)CC1`, the pIC50 was 6.14.
For `O=C(NCCCCCN1CCCN(C(=O)Nc2ccc(F)c(C(F)(F)F)c2)CC1)[C@@H]1C[C@H]1c1ccc(Cl)c(Cl)c1`, the pIC50 was 5.99.
The figure for `Nc1cc(-c2ccc3ccccc3c2)nc2ccccc12` is 6.15; for `CC(=O)Nc1ccc(C(=O)Nc2cccc(-c3ccc(-c4nc5ccccc5[nH]4)cc3)c2)cn1` it is 6.68.
The molecule `C=C[C@H]1CN2CC[C@H]1C[C@H]2[C@H](O)c1ccnc2ccccc12` had a pIC50 of 6.77.
In the case of `Nc1nc(N)c2c(Cl)c(CNc3cccc(C(=O)O)c3)ccc2n1` it was 8.00.
On to `CN1CCN(c2ccnc3ccc(NC(=O)Nc4ccccc4Br)cc23)CC1`, for which the pIC50 is 6.43.
In the case of `CCCCCc1cc(O)c2c(c1)OC(C)(C)c1ccncc1-2` it was 6.12; in that of `Cc1cc(N(C)C)nc(Nc2ccc(NC(=O)c3cccc(F)c3)cc2)n1`, 6.00; in that of `COC1CCC(C(=O)Nc2ccc(-c3cccc(-c4nc5ccc(C(F)(F)F)cc5[nH]4)c3)cc2)CC1` (stereo unspecified), 6.26.
In the case of `COc1ccc(-c2cccc(NC(=O)c3cccc(Cl)c3)c2)cc1CN(C)CCN(C)C` it was 6.09; in that of `COc1cc2c(cc1C(F)(F)F)N(C(=O)Nc1cc(F)c(F)c(-c3cccnc3)c1)CC2`, 6.20; in that of `COc1cc(Cc2cnc(N)nc2N)c2c(c1OC)OC(C)(C)C=C2`, 5.92.
Take `CN(C)CCN(C)Cc1cccc(-c2cccc(NC(=O)c3cccc(C#N)c3)c2)c1`: the negative logarithm of the IC50 (pIC50) is 6.06.
For the molecule `O=C(Nc1cc(Cl)ccc1Cl)N[C@H]1CCN(CCCCCNC(=O)[C@@H]2C[C@H]2c2ccc(Cl)c(Cl)c2)C1`, the pIC50 was 6.11.
The figure for `O=C(NCC1COc2ccccc2O1)c1cnc2c(c1)nc(-c1cnc(-c3ccccc3)[nH]1)n2CCSCc1c(F)cccc1Cl` (stereo unspecified) is 6.02.
With `O=C(/C=C/c1ccc(Cl)c(Cl)c1)NC1CCN(Cc2cccc(O)c2)CC1`, the pIC50 was 6.06.
`COc1ccc2nccc([C@@H](O)CN3CCC(NC(=O)Cc4cc5ccccc5s4)CC3)c2c1`: the pIC50 was 6.04.
In the case of `Cc1ccc(C(=O)Nc2cccc(CN3CCCN(Cc4ccc(O)cc4)CC3)c2)s1` it was 6.00; in that of `COc1ccc2c(NN=Cc3ccc([N+](=O)[O-])cc3)ccnc2c1`, 6.47.
In turn, `O=C(NC1CCN(Cc2cccc(C(F)(F)F)c2)CC1)c1ccc(-c2cccc(Cl)c2)s1` showed a negative logarithm of the IC50 (pIC50) of 5.95.
As to `O=C(Nc1ccc(Cn2ncc(N3CCCNCC3)c(Cl)c2=O)cc1)Nc1ccc(C(F)(F)F)cc1`, the pIC50 was 6.14.
For `O=C(NC1CCCCC1)c1csc(C2CCCN(C(=O)c3ccc(O)c(-c4cccc(C(F)(F)F)c4)c3)C2)n1` (stereo unspecified), the pIC50 was 5.78.
In the case of `CCOC(=O)c1c(C)n(C2CCCCC2)c2cc(Br)c(O)cc12` it was 6.09; in that of `O=C(Cc1cccc(Cl)c1)N1CCc2cc3nccc(N4CCN5CCC[C@H]5C4)c3cc21`, 6.07; in that of `CC(Oc1ccc(Cl)cc1)C(=O)NCCC1CCN(CCCCCNC(=O)/C=C/c2ccc(Cl)c(Cl)c2)CC1` (stereo unspecified), 5.99.
For the molecule `c1cc(CN2CCC(CCN3CCCCC3)CC2)cc(-c2cccc(-c3nc4ccccc4[nH]3)c2)c1`, the pIC50 was 6.85.
Consider `C=C[C@H]1CN2CC[C@H]1C[C@@H]2[C@@H](O)c1ccnc2ccc(OC)cc12`, for which the negative-log IC50 (pIC50) was 6.92.
Regarding `COc1ccc(-c2ccc(NC(=O)c3ccc(C#N)cc3)cc2)cc1CN1CCNCC1`, the pIC50 is 6.29.
Molecule `Cc1cc(O)c(CNC2CCCCC2)cc1C` showed a pIC50 of 5.98.
Consider `C=C[C@H]1CN2CC[C@H]1C[C@H]2[C@H](O)c1ccnc2ccc(OC)cc12`, for which the pIC50 was 7.00 and 6.37 and 6.82.
In the case of `CCCCc1cc(N2CCC(NC(C)=O)C2)nc(Nc2ccc(C)cc2)n1` (stereo unspecified) it was 6.06; in that of `CCOc1ccc(-c2nonc2NC(=O)c2ccc(OC)cc2)cc1OCC`, 6.09; in that of `COc1cc(CNC[C@@H](O)[C@H](Cc2ccccc2)NC(=O)c2cc(OC(C)C)cc(N3CCCCS3(=O)=O)c2)cc(OC)c1`, 6.23.
The figure for `CO/C(=C\C=C\c1cc2cc(Cl)c(Cl)cc2[nH]1)C(=O)NCCN1CCCCC1` is 5.85; for `COc1ccc(C2CC(=O)C3=C(C2)NC(C)=C(C(=O)OC2CCCC2)C3c2cccc(O)c2)cc1OC` (stereo unspecified) it is 6.66.
The figure for `COc1cc2c(cc1C(F)(F)F)N(C(=O)Nc1cccc(-c3ccc(CN(C)C)cc3)c1)CC2` is 6.15; for `Cc1cccc(C)c1CNc1cccc(-c2nc(C)c(C)[nH]2)c1` it is 6.06.
Consider `O=C(Nc1ccccc1)c1cnc[nH]1`, for which the negative logarithm of the IC50 (pIC50) was 6.00.
The figure for `CCC[C@@H]([C@@H](CC1CCCCC1)C(=O)N[C@H](C(=O)Nc1ccccn1)[C@H](C)CC)N(O)C=O` is 6.28.
`COC(=O)Nc1nc2cc3c(cc2s1)OCCO3` gave a pIC50 of 6.08.
As to `CCOc1cc(CC)ccc1C1CCN(CCCCNC(=O)c2ccc(NC(=O)c3ccc(Cl)cc3)cc2)CC1`, the pIC50 is 6.13.
In the case of `O=[N+]([O-])c1cccc(Nc2nccc(-c3cnn4ncccc34)n2)c1` it was 6.74; in that of `CCc1cn2c3c(cc(C(=O)N[C@@H](Cc4ccccc4)[C@H](O)CNC(C)(C)c4cccc(OC)c4)cc13)N(C)S(=O)(=O)C2`, 7.22.
With `O=[N+]([O-])c1cc2c(cc1C=NNc1nc(Nc3ccccc3)nc(Nc3ccccc3)n1)OCO2`, the negative logarithm of the IC50 (pIC50) was 6.06.
In the case of `Cc1cccc(C(=O)NC(NC(=S)Nc2ccc([N+](=O)[O-])cc2)C(Cl)(Cl)Cl)c1` (stereo unspecified) it was 6.13; in that of `COc1ccc2ccccc2c1C=NNc1ccnc2cc(Cl)ccc12`, 6.21; in that of `O=C(CCc1cccnc1)Nc1ccc(-c2cccc(-c3nc4ccc(F)cc4[nH]3)c2)cc1`, 6.04.
In the case of `COc1ccc2nccc([C@@H](O)CN3CCC(NCc4ccc(OC)c(NC(C)=O)c4)CC3)c2c1` it was 6.08; in that of `CC1CCCN1Cc1cccc(-c2ccc(C(=O)NCCOc3ccccc3)s2)c1` (stereo unspecified), 6.03.
In the case of `O=C(c1cc(-c2ccccc2)n[nH]1)N1CCN(S(=O)(=O)c2ccc(Cl)s2)CC1`, the pIC50 is 6.03.
Consider `O=C(/C=C/c1ccc(Cl)c(Cl)c1)NC1CCN(Cc2ccc(O)cc2)C1` (stereo unspecified), for which the pIC50 is 6.02.
In turn, `CN1CCCN(Cc2cccc(-c3cccc(NC(=O)c4ccc(C#N)cc4)c3)c2)CC1` showed a negative logarithm of the IC50 (pIC50) of 5.94.
Molecule `CN(C)c1cccc2c(S(=O)(=O)Nc3cccc(CCN4CCC(N5CCCCC5)CC4)c3)cccc12` showed a pIC50 of 6.01.
In the case of `CNC(=O)c1cnc(Nc2ccc(OCC(O)CN(C)C)cc2)nc1Nc1cccc([N+](=O)[O-])c1` (stereo unspecified) it was 6.21.
In the case of `Cc1ccc(NC(=O)c2ccc(CN3CCCN(Cc4cccc(C#N)c4)CC3)cc2)cc1F` it was 6.23; in that of `O=C(NC1CCN(Cc2ccc3c(c2)OCCO3)CC1)c1ccc(-c2cccc(C(F)(F)F)c2)s1`, 5.74; in that of `CN1CCC(N2CCN(Cc3ccc(-c4ccc(-c5nc6ccccc6[nH]5)s4)cc3)CC2)CC1`, 6.85.
The figure for `N#Cc1ccc(N2CCN(Cc3cccc(-c4ccc(-c5nc6ccc(C(F)(F)F)cc6[nH]5)s4)c3)CC2)nc1` is 5.98; for `CC(=O)Nc1nc(C(=O)Nc2cccc(-c3ccc(-c4nc5c(C)cccc5[nH]4)cc3)c2)cs1` it is 6.64; for `COc1ccc(-c2cccc(NC(=O)c3ccc(C#N)cc3)c2)cc1CNC(C)C` it is 6.09.
As for `CC(C)[C@H](NC(=O)c1c(F)cccc1F)C(=O)Nc1ccc(Cc2nc3ccccc3s2)cc1`, the pIC50 was 6.30.
Consider `COc1ccc2nccc([C@@H](O)CN3CCC(NCCOc4c(C)cccc4F)CC3)c2c1`, for which the pIC50 is 6.46.
The figure for `O=C(Cc1ccccc1)NC(CCN1CCC(NC(=O)c2ccc(Cl)cc2)CC1)c1ccc(Cl)c(Cl)c1` (stereo unspecified) is 6.04; for `COc1ccc(NC(=O)/C=C/c2ccccc2Cl)cc1OCCN1CCC(O)(c2ccc(Cl)c(C(F)(F)F)c2)CC1` it is 6.19; for `CC(C)c1cc2c(cc1O)C(Cc1ccccc1Cl)N(C)CC2` (stereo unspecified) it is 6.14.
`CC1CCN(Cc2cccc(C(=O)NCc3ccc(F)c(-c4cccc(CN5CCN[C@@H](C)C5)c4)c3)c2)CC1` showed a pIC50 of 5.84.
Molecule `CCCCCCNc1cc(C)nc(/N=C(\N)Nc2cccc(C(F)(F)F)c2)n1` gave a pIC50 of 6.13.
In the case of `c1ccc(Oc2ccc(Nc3ccnc4cc(-c5ccc(CN6CCNCC6)o5)ccc34)cc2)nc1` it was 6.62.
The figure for `C[C@@H](Oc1cc(-n2cnc3cc(SCCN4CCN(C)CC4)ccc32)sc1C(N)=O)c1ccccc1Cl` is 6.29; for `CN1CCN(c2ccnc3ccc(NC(=O)Cc4ccc5ccccc5c4)cc23)CC1` it is 6.12.
